Columns and labels:
[1] = test system: human breast carcinoma MCF-7 cells; test: In vitro antiproliferative assay (SRB), MCF-7; assay type: cell-based; details: mean ± SD; for IC50: Homo sapiens, MCF7, 72 h exposure; for IC50 MCF-7: 72 h exposure
Method: (§1) Biphenotypic B myelomonocytic leukemia MV4-11, human lung carcinoma A549, human breast carcinoma MCF-7, and normal mouse fibroblast BALB/3T3 cells were obtained from American Type Culture Collection (Rockville, Maryland, USA). All the cell lines are being maintained at the Institute of Immunology and Experimental Therapy, Wroclaw, Poland. MV4-11 cells were cultured in RPMI 1640 medium (Gibco, UK) with 2 mM L-glutamine adjusted to contain 1.0 mM sodium pyruvate, and 10% fetal bovine serum (FBS) (all from Sigma-Aldrich, Germany). A549 cells were cultured in RPMI 1640+ Opti-MEM (1:1) (both from Gibco, UK), MCF-7 cells in Eagle medium (IIET, Wroclaw, Poland), BALB/3T3 in Dulbecco medium (IIET, Poland) supplemented with 2 mM L-glutamine and 1.0 mM sodium pyruvate, 10% fetal bovine serum (all from Sigma-Aldrich, Germany). The MCF-7 cell culture was supplemented with 0.8 mg/l of insulin (Sigma-Aldrich, Germany). All culture media were supplemented with 100 units/ml penicillin, and 100 µg/ml streptomycin (both from Polfa Tarchomin S.A., Poland). All cell lines were grown at 37 °C with 5% CO2 humidified atmosphere (Łączkowski et al. [2014], [2016a]). Prior to usage, the compounds were dissolved in DMSO and culture medium (1: 9) to the concentration of 1 mg/ml, and subsequently diluted in culture medium to reach the required concentrations (0.1, 1, 10, and 100 µg/ml) (Łączkowski et al. [2014], [2016a]). Twenty-four hours prior to the addition of the tested compounds, the cells counted using Burker hemocytometer were plated in 96-well plates (Sarstedt, Germany) at a density of 1 × 10^4 cells per well. The assay was performed after 72 h of exposure to varying concentrations of the tested agents. The in vitro cytotoxic effect of all agents was examined using the SRB assay for adherent cells (A549, MCF-7, and BALB/3T3) or MTT assay for leukemia cells (MV4-11) as described previously. […] Each compound in each concentration was tested in triplicate in a single experiment, which was repeated 3–7 times (Rubinstein et al. [1990]; Bramson et al. [1995]). Cells were attached to the bottom of plastic wells by fixing them with cold 50% TCA (trichloroacetic acid, POCH, Gliwice, Poland) on top of the culture medium in each well. The plates were incubated at 4 °C for 1 h and then washed five times with tap water. The cellular material fixed with TCA was stained with 0.1% sulforhodamine B (SRB, Sigma-Aldrich, Germany) and dissolved in 1% acetic acid (POCH, Gliwice, Poland) for 30 min. Unbound dye was removed by rinsing (4×) in 1% acetic acid. The protein-bound dye was extracted with 10 mM unbuffered Tris base (Sigma-Aldrich, Germany) for determination of the optical density (λ = 540 nm) in a computer-interfaced, 96-well Synergy H4 (BioTek Instruments USA) photometer microtiter plate reader (Sidoryk et al. [2012]).

[2] = test system: human lung carcinoma A549 cells; test: In vitro antiproliferative assay (SRB), A549; assay type: cell-based; details: mean ± SD; for IC50: Homo sapiens, A549, 72 h exposure; for IC50 A549: 72 h exposure
Method: as §1

[3] = Cell viability assay (MTT), L929; assay type: cell-based, Mus musculus; details: mouse, L929 fibroblast cells
How it was run: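 L929 and VERO cells seeded at 1.0 × 10^4/well, attached 24 h, then exposed 24 h to compounds at 0.9–125.00 μg/ml (from DMSO stock). MTT (1 mg/ml) added for 2 h at 37 °C, formazan dissolved in DMSO, OD read at 550 nm. Viability expressed as percentage of 2.5% DMSO-treated controls; triplicate.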

IC50 [1] [µg/mL] | IC50 [2] [µg/mL] | IC50 MCF-7 [1] | IC50 A549 [2] | Compound | viability at 24 h, 0.9 µg/ml [3] [%] | viability at 24 h, 1.8 µg/ml [3] [%] | viability at 24 h, 3.9 µg/ml [3] [%] | viability at 24 h, 7.8 µg/ml [3] [%] | viability at 24 h, 15.6 µg/ml [3] [%] | viability at 24 h, 31.2 µg/ml [3] [%] | viability at 24 h, 62.5 µg/ml [3] [%] | viability at 24 h, 125 µg/ml [3] [%]
 |  | ─ | no antiproliferative activity | C/C(=N\Nc1nc(-c2cc3ccccc3oc2=O)cs1)c1ccc(Nc2nc(N)nc(N)n2)cc1 [Compound 4f, (E)-3-(2-(2-(1-(4-(4,6-diamino-1,3,5-triazin-2-yloamino)phenyl)ethylidene)hydrazinyl)thiazol-4-yl)-2H-chromen-2-on] |  |  |  |  |  |  |  | 
 |  | 6.67 ± 2.958 µg/mL | no antiproliferative activity | CC(=O)Nc1ccc(-c2csc(N/N=C(\C)c3ccc(Nc4nc(N)nc(N)n4)cc3)n2)cc1 [Compound 4g, (E)-N^2-(4-(2-(2-(1-(4-(4,6-diamino-1,3,5-triazin-2-yloamino)phenyl)ethylidene)hydraziny)thiazol-4-yl)phenyl)-acetamide] |  |  |  |  |  |  |  | 
8.72 ± 5.28 | 33.6 ± 2.42 |  |  | C/C(=N\Nc1nc(-c2ccc([N+](=O)[O-])cc2)cs1)c1ccc(Nc2nc(N)nc(N)n2)cc1 [Compound 4h, (E)-N^2-(4-(1-(2-(4-(4-nitrophenyl)-1,3-thiazol-2-yl)hydrazinylidene)ethyl)phenyl)-1,3,5-triazine-2,4,6-triamine] | 100 | 98.5 | 100 | 105 | 105 | 114 | 118 | 104
3.69 ± 1.64 | 57.5 ± 20.7 |  |  | C/C(=N\Nc1nc(-c2ccc(Cl)c(Cl)c2)cs1)c1ccc(Nc2nc(N)nc(N)n2)cc1 [Compound 4i, (E)-N^2-(4-(1-(2-(4-(3,4-dichlorophenyl)-1,3-thiazol-2-yl)hydrazinylidene)ethyl)phenyl)-1,3,5-triazine-2,4,6-triamine] | 101 | 97.9 | 96.1 | 100 | 98.1 | 108 | 100 | 
 |  | 5.95 ± 2.165 µg/mL | no antiproliferative activity | C/C(=N\Nc1nc(-c2ccc(NS(C)(=O)=O)cc2)cs1)c1ccc(Nc2nc(N)nc(N)n2)cc1 [Compound 4j, (E)-N-(4-(2-(2-(1-(4-(4,6-diamino-1,3,5-triazin-2-yloamino)phenyl)ethylidene)hydrazinyl)thiazol-4-yl)phenyl)-methanesulfonamide] |  |  |  |  |  |  |  | 
5.73 ± 2.05 |  |  | no antiproliferative activity | C/C(=N\Nc1nc(-c2ccccc2)cs1)c1ccc(Nc2nc(N)nc(N)n2)cc1 [Compound 4k, (E)-N^2-(4-(1-(2-(4-phenyl-1,3-thiazol-2-yl)hydrazinylidene)ethyl)phenyl)-1,3,5-triazine-2,4,6-triamine] | 109 | 107 | 106 | 101 | 106 | 111 | 116 | 130

The remaining lines, values behind:

Compound | IC50 [1] [µg/mL] | IC50 [2] [µg/mL] | IC50 MCF-7 [1] | IC50 A549 [2] | viability at 24 h, 0.9 µg/ml [3] [%] | viability at 24 h, 1.8 µg/ml [3] [%] | viability at 24 h, 3.9 µg/ml [3] [%] | viability at 24 h, 7.8 µg/ml [3] [%] | viability at 24 h, 15.6 µg/ml [3] [%] | viability at 24 h, 31.2 µg/ml [3] [%] | viability at 24 h, 62.5 µg/ml [3] [%] | viability at 24 h, 125 µg/ml [3] [%]
C/C(=N\Nc1nc(-c2ccc(F)cc2)cs1)c1ccc(Nc2nc(N)nc(N)n2)cc1 [Compound 4a, (E)-N^2-(4-(1-(2-(4-(4-fluorophenyl)-1,3-thiazol-2-yl)hydrazinylidene)ethyl)phenyl)-1,3,5-triazine-2,4,6-triamine] | 4.28 ± 0.984 | 38.6 ± 4.17 |  |  | 96.6 | 101 | 105 | 99 | 102 | 111 | 115 | 111
C/C(=N\Nc1nc(-c2ccc(Cl)cc2)cs1)c1ccc(Nc2nc(N)nc(N)n2)cc1 [Compound 4b, (E)-N^2-(4-(1-(2-(4-(4-chlorophenyl)-1,3-thiazol-2-yl)hydrazinylidene)ethyl)phenyl)-1,3,5-triazine-2,4,6-triamine] | 3.23 ± 0.401 | 23.8 ± 4.41 |  |  | 94.8 | 95.3 | 99.4 | 99.4 | 110 | 113 | 119 | 118
C/C(=N\Nc1nc(-c2ccc(C)cc2)cs1)c1ccc(Nc2nc(N)nc(N)n2)cc1 [Compound 4c, (E)-N^2-(4-(1-(2-(4-(4-tolyl)-1,3-thiazol-2-yl)hydrazinylidene)ethyl)phenyl)-1,3,5-triazine-2,4,6-triamine] | 8.33 ± 2.83 | 62.4 ± 11.5 |  |  | 98.2 | 95.5 | 98.2 | 92.9 | 102 | 105 | 106 | 118
C/C(=N\Nc1nc(-c2ccc(Br)cc2)cs1)c1ccc(Nc2nc(N)nc(N)n2)cc1 [Compound 4d, (E)-N^2-(4-(1-(2-(4-(4-bromophenyl)-1,3-thiazol-2-yl)hydrazinylidene)ethyl)phenyl)-1,3,5-triazine-2,4,6-triamine] | 3.18 ± 0.192 | 24.7 ± 6.1 |  |  | 99.9 | 97.8 | 99.9 | 93.7 | 108 | 113 | 115 | 113
C/C(=N\Nc1nc(-c2ccc(I)cc2)cs1)c1ccc(Nc2nc(N)nc(N)n2)cc1 [Compound 4e, (E)-N^2-(4-(1-(2-(4-(4-iodophenyl)-1,3-thiazol-2-yl)hydrazinylidene)ethyl)phenyl)-1,3,5-triazine-2,4,6-triamine] | 8.41 ± 0.373 | 45.4 ± 18.3 |  |  | 96 | 97.6 | 99.1 | 88.8 | 98.8 | 108 | 109 | 101

From publication PMC5854716, “Synthesis, molecular docking, ctDNA interaction, DFT calculation and evaluation of antiproliferative and anti-Toxoplasma gondii activities of 2,4-diaminotriazine-thiazole derivatives” (Medicinal Chemistry Research, 2018)
